Experimental data published in EP4692114A1, “CALCITONIN ANALOGUE, AND DERIVATIVE THEREOF AND USE THEREOF” (Hangzhou Sciwind Biosciences Co., Ltd., priority 2023, dated 2024).
*1 amine or outer side, *2 acyl side, *3 side chain or, on linkers, in order; H or OH if unused. Where a SMILES comes first, the peptide text is derived from it. The star is where a group is joined. C20 diacid = O=C(O)CCCCCCCCCCCCCCCCCCC(=O)*; γGlu = O=C(O)[C@H](CCC(=O)[*:2])N[*:1]

What was measured:
[1] = target: T1, human amylin receptors (Homo sapiens, UniProt O60896+P30988); test: Luciferase assay of amylin (amylin receptor/CRE-luc cell line); assay type: cell-based; settings: stably transfected amylin receptor/CRE-luc CHO cells (CHO-K1/Gal5/AMY3), 24 hours incubation, luciferase readout;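 further: agonist potency from luminescence of cAMP response element-driven luciferase, EC50 derived from a standard curve of signal versus compound concentration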
T1 sequence (P30988 25-474): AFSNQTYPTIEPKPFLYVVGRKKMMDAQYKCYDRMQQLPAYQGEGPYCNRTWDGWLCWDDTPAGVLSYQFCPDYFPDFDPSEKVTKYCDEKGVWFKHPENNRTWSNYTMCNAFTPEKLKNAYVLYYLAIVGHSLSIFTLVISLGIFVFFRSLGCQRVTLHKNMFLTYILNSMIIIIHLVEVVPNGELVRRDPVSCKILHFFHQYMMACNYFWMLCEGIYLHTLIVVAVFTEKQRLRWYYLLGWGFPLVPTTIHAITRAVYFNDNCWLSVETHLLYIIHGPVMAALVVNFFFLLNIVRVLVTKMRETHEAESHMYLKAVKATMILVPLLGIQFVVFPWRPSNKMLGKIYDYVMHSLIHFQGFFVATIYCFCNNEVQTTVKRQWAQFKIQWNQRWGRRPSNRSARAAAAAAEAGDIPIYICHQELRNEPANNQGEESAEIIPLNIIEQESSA
T1 sequence (O60896 24-148 partner): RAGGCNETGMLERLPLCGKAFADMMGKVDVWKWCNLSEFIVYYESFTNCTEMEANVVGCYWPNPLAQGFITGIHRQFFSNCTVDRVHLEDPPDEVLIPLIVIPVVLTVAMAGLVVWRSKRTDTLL
From the text: The objective of this assay is to test the activity or potency of calcitonin analogues or derivatives on human amylin receptors in vitro using a luciferase assay.
Using the standard protocol, CHO-K1/Gal5/AMY3 cells (purchased from GenScript, with the calcitonin receptor and the receptor activity modifying peptide (RAMP) constructed already) were transfected with a plasmid containing a luciferase expression cassette driven by multiple copies of cAMP response elements (CREs). The cells were cultured in an F12 medium containing 200 ug/mL Zeocin, 2 ug/mL puromycin, 100 ug/mL hygromycin, and 400 ug/mL G418 to afford a stably transfected amylin receptor/CRE-luc cell line.
To each well of a white 96-well plate was added 50 µL of the tested sample solution at a respective concentration.
The stably transfected amylin receptor/CRE-luc CHO cells were resuspended in the growth medium at a certain density, and 50 µL of the cell suspension was added at a density of about 20000 cells per well to the white 96-well plate containing the tested sample solution. After incubation of 24 hours at 37°C and 5% CO2, 100 µL of a Luciferase substrate was added to each well, incubated for 3 minutes, and finally was tested for luminescence on SpectraMax L (Molecular Devices) with the software SoftMax Pro 7.0.3 GxP. A standard curve was plotted using the fluorescent intensities for calculation of EC50.

[2] = Heat accelerated stability assay under a neutral condition; assay type: physicochemical; settings: pH about 7.4, 40°C; for Changes in characteristics or properties, 0d / Changes in characteristics or properties, 7d / Characteristics or properties on Day 26: 1 mg/mL, phosphate; for Concentration change (7d-0d)/%: Day 7 vs Day 0, reversed phase chromatography; for Purity Change% (7d-0d): purity from reversed phase chromatography-214 nm, Day 7 vs Day 0
How it was run: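 Peptide (1 mg/mL) with sodium dihydrogen phosphate (1.42 mg/mL) in water, pH ~7.4, was sterile-filtered and stored at 40 °C, sampled on days 7 and 26. After centrifugation, concentration and purity (target/total peak area) were measured by reversed-phase HPLC at 214 and 280 nm, water/0.05% TFA to acetonitrile gradient, 25 °C column.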

[3] = Study of weight change and food consumption in rats; assay type: in vivo, SD (Sprague Dawley) rats; settings: SD rats, subcutaneous, 10 nmol/kg; for Effect on reducing food intake: accumulated food intake recorded every 24 hours (FIGs. 7 and 9); for Effect on reducing body weight: recorded every 24 hours (FIGs. 6 and 8)
From the text: SD (Sprague Dawley) rats weighing 200-250 g were used for this study. The rats were received at least 10-14 days before the study began such that they could accommodate to the experimental environment. After arrival, they were exposed to a reversed light/dark cycle (i.e., lights switched off in daytime and on in nighttime) for two weeks and were individually housed for the first week so as to ensure high data accuracy and test sensitivity. Throughout the acclimation and experiment period, the rats had free access to food and water. 5-8 rats were assigned to each testing group for the derivatives and were subcutaneously administered the derivatives at a dose of 10 nmol/kg or a vehicle, and the dosing timepoint was recorded for each group. After dosing, the rats were put back into cages where they were housed and could have access to food and water. Food consumption and weight change of the rats were recorded online or manually every 24 hours.

Row | Structure (SMILES) | EC50 [1] [nM] | Changes in characteristics or properties, 0d [2] | Changes in characteristics or properties, 7d [2] | Characteristics or properties on Day 26 [2] | Concentration change (7d-0d)/% [2] | Purity Change% (7d-0d) [2] | Effect on reducing food intake [3] | Effect on reducing body weight [3] | Concentration change on Day 26 as compared to Day 0 ([2]; Day 26 vs Day 0)
1 | CC(C)C[C@H](NC(=O)[C@H](CCCNC(=N)N)NC(=O)CNC(=O)[C@H](CC(C)C)NC(=O)[C@@H](NC(=O)[C@H](C)NC(=O)[C@@H](NC(=O)[C@H](CO)NC(=O)[C@H](CC(C)C)NC(=O)[C@H](CCC(N)=O)NC(=O)[C@H](CO)NC(=O)[C@H](C)NC(=O)CC[C@H](NC(=O)CCCCCCCCCCCCCCCCCCC(=O)O)C(=O)O)[C@@H](C)O)C(C)C)C(=O)N[C@@H](CO)C(=O)N[C@@H](CCC(=O)O)C(=O)N[C@@H](CCC(=O)O)C(=O)N[C@@H](CC(C)C)C(=O)N[C@@H](Cc1c[nH]cn1)C(=O)N[C@@H](CCCNC(=N)N)C(=O)N[C@@H](CC(C)C)C(=O)N[C@@H](CCC(N)=O)C(=O)N[C@@H](CC(=O)O)C(=O)N[C@@H](Cc1ccc(O)cc1)C(=O)N1CCC[C@H]1C(=O)N[C@@H](CCCNC(=N)N)C(=O)N[C@H](C(=O)N[C@@H](CC(=O)O)C(=O)N[C@H](C(=O)NCC(=O)N[C@@H](CO)C(=O)NCC(=O)N[C@@H](CO)C(=O)N1CCC[C@H]1C(N)=O)C(C)C)[C@@H](C)O [M9] ({C20 diacid-γGlu}-ASQLSTAVLGRLSEELHRLQDYPRTDVGSGSP-NH2) | 0.017 | Clear | Clear | clear solution | No change (a decrease of less than 1% from the initial value to the detected content is denoted as "no change") | No change (a decrease of less than 1% from the initial value to the detected content is denoted as "no change") | particularly effective | particularly effective | –
2 | CC(C)C[C@H](NC(=O)[C@H](CCCNC(=N)N)NC(=O)CNC(=O)[C@H](CC(C)C)NC(=O)[C@@H](NC(=O)[C@H](C)NC(=O)[C@@H](NC(=O)[C@H](CO)NC(=O)[C@H](CC(C)C)NC(=O)[C@H](CCC(N)=O)NC(=O)[C@H](CO)NC(=O)[C@H](C)NC(=O)CC[C@H](NC(=O)CCCCCCCCCCCCCCCCCCC(=O)O)C(=O)O)[C@@H](C)O)C(C)C)C(=O)N[C@@H](CO)C(=O)N[C@@H](CCC(N)=O)C(=O)N[C@@H](CCC(=O)O)C(=O)N[C@@H](CC(C)C)C(=O)N[C@@H](Cc1c[nH]cn1)C(=O)N[C@@H](CCCNC(=N)N)C(=O)N[C@@H](CC(C)C)C(=O)N[C@@H](CCC(=O)O)C(=O)N[C@@H](CC(=O)O)C(=O)N[C@@H](Cc1ccc(O)cc1)C(=O)N1CCC[C@H]1C(=O)N[C@@H](CCCNC(=N)N)C(=O)N[C@H](C(=O)N[C@@H](CC(=O)O)C(=O)N[C@H](C(=O)NCC(=O)N[C@@H](CO)C(=O)NCC(=O)N[C@@H](CO)C(=O)N1CCC[C@H]1C(N)=O)C(C)C)[C@@H](C)O [M13] ({C20 diacid-γGlu}-ASQLSTAVLGRLSQELHRLEDYPRTDVGSGSP-NH2) | 0.017 | Clear | Clear | clear solution | – | No change (a decrease of less than 1% from the initial value to the detected content is denoted as "no change") | particularly effective | particularly effective | less than 2%
3 | CC(C)C[C@H](NC(=O)[C@H](CCCNC(=N)N)NC(=O)CNC(=O)[C@H](CC(C)C)NC(=O)[C@@H](NC(=O)[C@H](C)NC(=O)[C@@H](NC(=O)[C@H](CO)NC(=O)[C@H](CC(C)C)NC(=O)[C@H](CCC(N)=O)NC(=O)[C@H](CO)NC(=O)[C@H](C)NC(=O)CC[C@H](NC(=O)CCCCCCCCCCCCCCCCCCC(=O)O)C(=O)O)[C@@H](C)O)C(C)C)C(=O)N[C@@H](CO)C(=O)N[C@@H](CCC(N)=O)C(=O)N[C@@H](CCC(=O)O)C(=O)N[C@@H](CC(C)C)C(=O)N[C@@H](Cc1c[nH]cn1)C(=O)N[C@@H](CCCNC(=N)N)C(=O)N[C@@H](CC(C)C)C(=O)N[C@@H](CCC(N)=O)C(=O)N[C@@H](CC(=O)O)C(=O)N[C@@H](Cc1ccc(O)cc1)C(=O)N1CCC[C@H]1C(=O)N[C@@H](CCCNC(=N)N)C(=O)N[C@H](C(=O)N[C@@H](CC(=O)O)C(=O)N[C@H](C(=O)NCC(=O)N[C@@H](C)C(=O)NCC(=O)N[C@@H](CO)C(=O)N1CCC[C@H]1C(N)=O)C(C)C)[C@@H](C)O [M19] ({C20 diacid-γGlu}-ASQLSTAVLGRLSQELHRLQDYPRTDVGAGSP-NH2) | 0.016 | Clear | Clear | – | No change (a decrease of less than 1% from the initial value to the detected content is denoted as "no change") | No change (a decrease of less than 1% from the initial value to the detected content is denoted as "no change") | prominent effect | prominent effect | –
4 | CC(C)C[C@H](NC(=O)[C@H](CCCNC(=N)N)NC(=O)CNC(=O)[C@H](CC(C)C)NC(=O)[C@@H](NC(=O)[C@H](C)NC(=O)[C@@H](NC(=O)[C@H](CO)NC(=O)[C@H](CC(C)C)NC(=O)[C@H](CCC(N)=O)NC(=O)[C@H](CO)NC(=O)[C@H](C)NC(=O)CC[C@H](NC(=O)CCCCCCCCCCCCCCCCCCC(=O)O)C(=O)O)[C@@H](C)O)C(C)C)C(=O)N[C@@H](CO)C(=O)N[C@@H](CCC(N)=O)C(=O)N[C@@H](CCC(=O)O)C(=O)N[C@@H](CC(C)C)C(=O)N[C@@H](Cc1c[nH]cn1)C(=O)N[C@@H](CCCNC(=N)N)C(=O)N[C@@H](CC(C)C)C(=O)N[C@@H](CCC(N)=O)C(=O)N[C@@H](CC(=O)O)C(=O)N[C@@H](Cc1ccc(O)cc1)C(=O)N1CCC[C@H]1C(=O)N[C@@H](CCCNC(=N)N)C(=O)N[C@H](C(=O)N[C@@H](CC(=O)O)C(=O)N[C@H](C(=O)NCC(=O)N[C@@H](C)C(=O)N[C@@H](CCC(=O)O)C(=O)N[C@@H](CO)C(=O)N1CCC[C@H]1C(N)=O)C(C)C)[C@@H](C)O [M20] ({C20 diacid-γGlu}-ASQLSTAVLGRLSQELHRLQDYPRTDVGAESP-NH2) | 0.017 | – | – | – | – | – | prominent effect | prominent effect | –
